Experimental data reported in patent US20090118135A1, “METHODS AND COMPOUNDS FOR REGULATING APOPTOSIS” (The Burnham Institute, priority 2007, published 2009).
Where two headings read alike, the source gives them in different places.

Experiments:
GST-Bcl-B = molecular target: T1, GST-Bcl-B (Homo sapiens, UniProt Q9HD36); test: Bcl-B/FITC-TR3-r8 fluorescence polarization competition (displacement) assay, HTS and dose-response
T1 sequence (Q9HD36 1-182 limits assumed): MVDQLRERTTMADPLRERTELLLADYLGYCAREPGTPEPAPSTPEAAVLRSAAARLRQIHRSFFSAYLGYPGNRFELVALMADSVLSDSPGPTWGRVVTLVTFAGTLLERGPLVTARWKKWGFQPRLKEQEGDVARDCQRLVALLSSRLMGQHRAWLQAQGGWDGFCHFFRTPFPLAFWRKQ

GST-Bfl-1 = molecular target: T2, GST-Bfl-1 (Homo sapiens, UniProt Q16548); test: Bfl-1/FITC-Bid BH3 competitive fluorescence polarization assay; assay type: binding; conditions: primary HTS hits, MLSCN library (PubChem SIDs), Table 5B
T2 construct: lacking their C-terminal transmembrane domains (about the last 20 amino acids) (“ΔTM”); made in house; host or cells: XL-1 Blue E. coli, pGEX 4T-1
T2 sequence (Q16548 1-155 limits assumed): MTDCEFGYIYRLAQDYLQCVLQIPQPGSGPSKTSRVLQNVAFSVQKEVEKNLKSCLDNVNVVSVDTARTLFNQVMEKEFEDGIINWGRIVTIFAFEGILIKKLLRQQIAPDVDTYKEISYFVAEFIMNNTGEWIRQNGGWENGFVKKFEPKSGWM

[1] = Table 8, NCI Structural library, Binding Assay, FP, Concentration 0.02 uM
[2] = read-out: Result Value (Result Type % Inhibition), BCL-b/TR3
[3] = Table 7, NCI Mechanistic library, Binding Assay, FP, Concentration 0.02 uM
[4] = read-out: Result Value (Result Type % Inhibition), BCL-b/TR3, Table 8, NCI Structural library, Binding Assay, FP, Concentration 0.02 uM

Row | Structure (SMILES) | inhibition at 0.02 µM (GST-Bcl-B; [2]) [%] | % Activity (GST-Bfl-1) [%] | FRatio (GST-Bfl-1) | other results
1 | O=C(O)C1=CC(=C(c2ccc(O)c(C(=O)O)c2)c2ccc(O)c(C(=O)O)c2)C=CC1=O [A 1895] | – | – | – | Is Hit (GST-Bcl-B; LOPAC1280 library primary screen): Yes; F Ratio (GST-Bcl-B; LOPAC1280 library, fluorescence intensity normalized to plate negative controls): 0.07629; inhibition at 0.02 µM (GST-Bcl-B; read-out: Result Value (% Inhibition)): 107%
2 | O=[N+]([O-])c1ccc2c(/N=N/c3ccc4ccccc4c3O)c(O)cc(S(=O)(=O)O)c2c1 [Compound 7223] | 139 | – | – | F Ratio (GST-Bcl-B; [1]): 0.05712; Is Hit (GST-Bcl-B; [1]): Yes
3 | Cc1ccc(/N=N/c2c(O)ccc3cc(S(=O)(=O)O)ccc23)cc1 [Compound 7814] | 54.3 | – | – | F Ratio (GST-Bcl-B; [1]): 0.28; Is Hit (GST-Bcl-B; [1]): Yes
4 | O=S(=O)(O)c1ccc(NN(c2c(O)ccc3ccccc23)S(=O)(=O)O)cc1 [Compound 9600] | 50.7 | – | – | F Ratio (GST-Bcl-B; [1]): 0.4361; Is Hit (GST-Bcl-B; [1]): Yes
5 | O=C1c2ccccc2C(=O)c2c(O)c(O)cc(O)c21 [Compound 10447] | 146 | – | – | F Ratio (GST-Bcl-B; [3]): 0.5532; Is Hit (GST-Bcl-B; [3]): Yes
6 | Cc1ccc(/N=N/c2c(O)c(S(=O)(=O)O)cc3cc(S(=O)(=O)O)ccc23)c(C)c1 [Compound 10455] | 50.7 | – | – | F Ratio (GST-Bcl-B): 0.4406; Is Hit (GST-Bcl-B): Yes
7 | N=C1C=CC(=C(c2ccc(N)cc2)c2ccc(N)cc2)C=C1 [Compound 10460] | 81.7 | – | – | F Ratio (GST-Bcl-B; [1]): 0.1378; Is Hit (GST-Bcl-B; [1]): Yes
8 | Oc1c(C(O)(c2ccccc2)c2ccc3ccccc3c2O)ccc2ccccc12 [Compound 13984] | 87 | – | – | F Ratio (GST-Bcl-B; [1]): 0.7704; Is Hit (GST-Bcl-B; [1]): Yes
9 | CN(C)CS/C(N)=N\C(O)C(Cl)(Cl)Cl (stereo not shown) [Compound 14555] | – | – | – | F Ratio (GST-Bcl-B; [1]): 0.6767; Is Hit (GST-Bcl-B; [1]): Yes; inhibition at 0.02 µM (GST-Bcl-B; [4]): 59.9%
10 | CCN(CCO)CCNc1ccc(C)c2sc3ccccc3c(=O)c12 [Compound 20534] | 74.4 | – | – | F Ratio (GST-Bcl-B; [3]): 0.6411; Is Hit (GST-Bcl-B; [3]): Yes
11 | CCN1C=C/C(=C\C=C\c2cc[n+](CC)c3ccccc23)C2C=CC=CC21 (stereo not shown) [Compound 34391] | 104 | – | – | F Ratio (GST-Bcl-B; [3]): 0.2486; Is Hit (GST-Bcl-B; [3]): Yes
12 | O=S(=O)(O)c1cc(/N=N/c2cc(S(=O)(=O)O)c3ccccc3c2O)ccc1/C=C/c1ccc(/N=N/c2cc(S(=O)(=O)O)c3ccccc3c2O)cc1S(=O)(=O)O [Compound 34931] | 80.3 | – | – | F Ratio (GST-Bcl-B; [3]): 0.0509; Is Hit (GST-Bcl-B; [3]): Yes
13 | O=S(=O)(O)c1cc(/N=[N+](\[O-])c2cc(S(=O)(=O)O)c3ccccc3c2)cc2ccccc12 [Compound 37031] | 84.6 | – | – | F Ratio (GST-Bcl-B; [1]): 0.4022; Is Hit (GST-Bcl-B; [1]): Yes
14 | O=S(=O)(O)c1cc(O)c2c(O)c(/N=N/c3cccc4ccccc34)c(S(=O)(=O)O)cc2c1 [Compound 45208] | 66.1 | – | – | F Ratio (GST-Bcl-B; [1]): 0.1219; Is Hit (GST-Bcl-B; [1]): Yes
15 | O=S(=O)(O)c1ccc2c(/N=N/c3c(O)ccc4ccccc34)cccc2c1 [Compound 45576] | 119 | – | – | F Ratio (GST-Bcl-B; [1]): 0.05945; Is Hit (GST-Bcl-B; [1]): Yes
16 | O=S(=O)(O)c1ccc2c(/N=N/c3cccc4ccccc34)c(O)c(S(=O)(=O)O)cc2c1 [Compound 45583] | 84.6 | – | – | F Ratio (GST-Bcl-B; [1]): 0.1069; Is Hit (GST-Bcl-B; [1]): Yes
17 | CN(C)C1C(O)=C(C(=O)NCN2CCCC2)C(=O)C2(O)C(O)=C3C(=O)c4c(O)cccc4C(C)(O)C3CC12 (stereo not shown) [Compound 50352] | – | – | – | F Ratio (GST-Bcl-B; [1]): 0.2153; Is Hit (GST-Bcl-B; [1]): Yes; inhibition at 0.02 µM (GST-Bcl-B; [4]): 122%
18 | O=C1c2cc([N+](=O)[O-])ccc2-c2ccc3c4ccc5c6c(ccc(c7ccc1c2c73)c64)C(=O)c1cc([N+](=O)[O-])ccc1-5 [Compound 51535] | 146 | – | – | F Ratio (GST-Bcl-B; [1]): 0.4823; Is Hit (GST-Bcl-B; [1]): Yes
19 | O=C(N/N=C1\C(=O)c2cccc3cccc1c23)c1ccc(Cl)cc1 [Compound 16953557] | – | 68.6 | 0.84 | –
20 | CC(=N)/C(C#N)=C(\O)CSc1nc2ccccc2[nH]1 [Compound 17385704] | – | 105.8 | 0.67 | –
21 | COc1cc(-c2nnc(SCc3cc(=O)oc4cc(O)c(O)cc34)o2)cc(OC)c1OC [Compound 17385711] | – | 68.3 | 0.7 | –

Row | Structure (SMILES) | inhibition at 0.02 µM (GST-Bcl-B; [2]) [%] | % Activity (GST-Bfl-1) [%] | FRatio (GST-Bfl-1) | other results
22 | COc1ccccc1CNC(=O)COC(=O)c1cc(-c2ccco2)nc2ccccc12 [Compound 17385737] | – | 70.8 | 0.81 | –
23 | N#Cc1ccccc1CN1C(=O)S/C(=C/c2cccn2-c2ccc(C(=O)O)cc2)C1=O [Compound 17385953] | – | 63.5 | 0.75 | –
24 | Cn1c(SCC(=O)Nc2ccc3nc(SCC(=O)N4CCCC4)sc3c2)nnc1-c1ccc(N)cc1 [Compound 17386645] | – | 53.9 | 0.79 | –
25 | COc1cc(CNCCc2c[nH]c3ccccc23)ccc1OCc1ccc(F)cc1 [Compound 17386700] | – | 76.5 | 0.84 | –
26 | CN(CC(=O)Nc1c(Cl)cccc1Cl)C(=O)CCCN1C(=O)c2ccccc2C1=O [Compound 17388283] | – | 57.1 | 0.97 | –
27 | O=[N+]([O-])c1cc(-c2ccc(/C=N/c3nc4ccccn4c3-c3ccco3)o2)ccc1Cl [Compound 17388349] | – | 60.5 | 0.99 | –
28 | CCn1c(CSc2nc3ccccc3s2)nnc1SCC(=O)c1ccc(O)c(O)c1 [Compound 17388455] | – | 74.1 | 0.8 | –
29 | CN(C)c1cccc(C(=O)OCc2cc(=O)oc3cc(O)ccc23)c1 [Compound 17388495] | – | 71.7 | 1 | –
30 | C=CCN1C(=O)/C(=C2/C(=O)N(CC(=O)O)c3ccccc32)S/C1=N\c1nccs1 [Compound 17401584] | – | 131.8 | 0.83 | –
31 | Oc1ccc(C2=Nn3c(nnc3-c3ccco3)SC2)cc1O [Compound 17401638] | – | 56.6 | 0.82 | –
32 | COc1ccc(C2C=C(c3ccc(Br)cc3)Nc3nc(NS(C)(=O)=O)nn32)cc1 (stereo not shown) [Compound 17401655] | – | 54.6 | 1.46 | –
33 | O=C(CCCCCn1c(=S)[nH]c2ccccc2c1=O)NCc1ccc2c(c1)OCO2 [Compound 17402018] | – | 52.9 | 1.37 | –
34 | O=c1c([N+](=O)[O-])cc(C(F)(F)F)cn1Cc1cccc(Cl)c1 [Compound 17402915] | – | 89.8 | 0.61 | –
35 | O=C1c2ccccc2C(=O)c2c1cccc2N1CCN(CCO)CC1 [Compound 17403435] | – | 56.9 | 1.3 | –
36 | Nc1cc2nsnc2cc1Br [Compound 17407909] | – | 58.5 | 1.42 | –
37 | O=C(N/N=C/c1ccc(F)cc1)c1cc(-c2ccco2)nc2ccccc12 [Compound 17408998] | – | 84.8 | 0.87 | –
38 | O=C(COc1ccccc1C(=O)N/N=C/c1ccc(O)c(O)c1)N/N=C/c1ccc(O)c(O)c1 [Compound 17409262] | – | 70.9 | 0.77 | –
39 | Cc1nc(NC(=O)c2ccco2)sc1-c1csc(Nc2ccc(Cl)cc2Cl)n1 [Compound 17410012] | – | 54.4 | 0.7 | –
40 | COC(=O)C1=C(C)N(c2ccccc2)/C(=C/c2cccs2)C1=O [Compound 17415043] | – | 65.7 | 0.53 | –
41 | N/C(=N\N=C\c1ccc(-c2ccc(O)c(C(=O)O)c2)o1)N[N+](=O)[O-] [Compound 17416093] | – | 84.4 | 0.7 | –
